{"source": "patent US4347319A", "about": "“Microbiological epoxidation process” (priority 1980, dated 1982)", "key": {"[1]": {"tested_on": "cell-free soluble extract of Methylobacterium organophilium CRL 26 (NRRL B 11,222)", "details": "NAD added", "description": "(§1) To prepare the cell-free secondary alcohol dehydrogenous (SADH) system, the washed cells were disrupted with a Wave Energy Ultrasonic Oscillator, Model W201 (Wave Energy System, Inc., Newtown, Pa.) and centrifuged at 20,000×g. for 30 minutes. […] The enzyme activity was measured with a fluorescence spectrophotometer (Perkin Elmer, Model MPF 44A) by following the formation of reduced NAD (EX 340 nm, Em 460 nm). The formation of reduced NAD was also followed with an absorption spectrophotometer at 340 nm. The assay system (3 ml.) contained: potassium phosphate buffer pH 7.0; 150 μmol.; NAD 1 μmol.; a given amount of enzyme preparation; and secondary alcohol 10 μmol. The reaction was started by the addition of substrate. One unit of enzyme activity represents the reduction of one μmole NAD per minute. Protein concentrations were determined by the Lowry method as referenced above.\n(§2) The experimental procedure for the tests reported in Table XVII were as follows: 1 mg protein of crude extract was added into a 0.5 ml. 0.05 M phosphate buffer (pH 7.0) in a 10-ml. vial. […] The reaction mixture was incubated at 30° C. on a water bath. A 3 μl sample was removed with a syringe at 15 min. of incubation and was assayed with g.l.c. Catalytic activity was also assayed by fluorescence spectrophotometry."}, "[2]": {"tested_on": "cell-free soluble extract of Methylosinus trichosporium OB3b (NRRL B-11,196)", "details": "NAD added", "description": "as §1, §2"}, "[3]": {"tested_on": "cell-free soluble extract of Methylococcus capsulatus CRL M1 (NRRL B-11,219)", "details": "NAD added", "description": "as §1, §2"}, "[4]": {"tested_on": "cell extract of Pichia sp. NRRL-Y-11,328", "experiment": "Oxidation of secondary alcohols to methylketone by cell extracts of yeasts", "format": "biochemical", "details": "methanol-grown; cell extract + NAD^+; sec. alcohol to methyl ketone; gas chromatography"}, "[5]": {"tested_on": "cell extract of Torulopsis sp. strain A1 NRRL-Y-11,419", "experiment": "Oxidation of secondary alcohols to methylketone by cell extracts of yeasts", "format": "biochemical"}, "[6]": {"tested_on": "Kloeckera sp. Strain A2 (NRRLY-11,420)", "experiment": "Oxidation of sec-alcohols to ketones by cell suspensions of yeasts", "format": "cell-based", "details": "sec-alcohol to methyl ketone"}, "[7]": {"tested_on": "Candida utilis ATCC 26387", "experiment": "Oxidation of sec-alcohols to ketones by cell suspensions of yeasts", "format": "cell-based", "details": "sec-alcohol to methyl ketone"}, "[8]": {"tested_on": "cell extract of Candida utilis ATCC 26,387", "experiment": "Oxidation of secondary alcohols to methylketone by cell extracts of yeasts", "format": "biochemical"}, "[9]": {"tested_on": "cell-free soluble extract of Pseudomonas sp. CRL 75 ATCC 21439", "details": "growth substrate CH3 OH; NAD added", "procedure": "To prepare the cell-free secondary alcohol dehydrogenous (SADH) system, the washed cells were disrupted with a Wave Energy Ultrasonic Oscillator, Model W201 (Wave Energy System, Inc., Newtown, Pa.) and centrifuged at 20,000×g. for 30 minutes. The clear supernatant contained the SADH activity. The enzyme activity was measured with a fluorescence spectrophotometer (Perkin Elmer, Model MPF 44A) by following the formation of reduced NAD (EX 340 nm, Em 460 nm). The formation of reduced NAD was also followed with an absorption spectrophotometer at 340 nm. The assay system (3 ml.) contained: potassium phosphate buffer pH 7.0; 150 μmol.; NAD 1 μmol.; a given amount of enzyme preparation; and secondary alcohol 10 μmol. The reaction was started by the addition of substrate. One unit of enzyme activity represents the reduction of one μmole NAD per minute. Protein concentrations were determined by the Lowry method as referenced above."}, "[10]": {"tested_on": "cell extract of Hansenula polymorpha ATCC 26,012", "experiment": "Oxidation of secondary alcohols to methylketone by cell extracts of yeasts", "format": "biochemical"}, "[11]": {"details": "2-butanol as a substrate, spectrophotometrically"}, "[12]": {"details": "methanol-grown, cell extract + NAD^+, sec. alcohol to methyl ketone, gas chromatography"}}, "note": "Like-named read-outs stand apart in the source and are kept apart here.", "data": [{"smiles": "CCC(C)O", "note": "(stereo not drawn) [2-Butanol]", "values": [{"measurement": "Conversion Rate 2-butanol to 2-butanone", "setting": "[1]; growth substrate CH3 OH", "result": 2.5, "unit": "nmoles/min/mg protein"}, {"measurement": "Conversion Rate 2-butanol to 2-butanone", "setting": "[1]; growth substrate CH4", "result": 1.8, "unit": "nmoles/min/mg protein"}, {"measurement": "Conversion Rate 2-butanol to 2-butanone", "setting": "[2]; growth substrate CH3 OH", "result": 2.4, "unit": "nmoles/min/mg protein"}, {"measurement": "Conversion Rate 2-butanol to 2-butanone", "setting": "[2]; growth substrate CH4", "result": 4.5, "unit": "nmoles/min/mg protein"}, {"measurement": "Conversion Rate 2-butanol to 2-butanone", "setting": "[3]; growth substrate CH3 OH", "result": 2.0, "unit": "nmoles/min/mg protein"}, {"measurement": "Conversion Rate 2-butanol to 2-butanone", "setting": "[3]; growth substrate CH4", "result": 3.2, "unit": "nmoles/min/mg protein"}, {"measurement": "Conversion Rate", "setting": "[4]", "result": 6.2, "unit": "μmoles/hr/mg Protein"}, {"measurement": "specific activities", "setting": "[5]; [11]", "result": "62 nmoles NAD^+ reduced per min. per mg. protein"}, {"measurement": "Conversion Rate", "setting": "[5]; [12]", "result": 4.9, "unit": "μmoles/hr/mg Protein"}, {"measurement": "Conversion Rate", "setting": "[6]; growth substrate Ethanol", "result": "5.7 μmoles/hr/mg of protein"}, {"measurement": "Conversion Rate", "setting": "[6]; growth substrate Methanol", "result": "5.9 μmoles/hr/mg of protein"}, {"measurement": "Conversion Rate", "setting": "[6]; growth substrate Methylamine", "result": "5.4 μmoles/hr/mg of protein"}, {"measurement": "Conversion Rate", "setting": "[6]; growth substrate Methylformate", "result": "5.9 μmoles/hr/mg of protein"}, {"measurement": "Conversion Rate", "setting": "[6]; growth substrate Propylamine", "result": "4.2 μmoles/hr/mg of protein"}, {"measurement": "Conversion Rate", "setting": "[7]; growth substrate Ethanol", "result": "5.2 μmoles/hr/mg of protein"}, {"measurement": "Conversion Rate", "setting": "[7]; growth substrate Methanol", "result": "6.8 μmoles/hr/mg of protein"}, {"measurement": "Conversion Rate", "setting": "[7]; growth substrate Methylamine", "result": "5.0 μmoles/hr/mg of protein"}, {"measurement": "Conversion Rate", "setting": "[7]; growth substrate Methylformate", "result": "6.2 μmoles/hr/mg of protein"}, {"measurement": "Conversion Rate", "setting": "[7]; growth substrate Propylamine", "result": "4.2 μmoles/hr/mg of protein"}, {"measurement": "specific activities", "setting": "[8]; [11]", "result": "78 nmoles NAD^+ reduced per min. per mg. protein"}, {"measurement": "Conversion Rate", "setting": "[8]; [12]", "result": 4.92, "unit": "μmoles/hr/mg Protein"}, {"measurement": "Conversion Rate 2-butanol to 2-butanone", "setting": "[9]", "result": 25.0, "unit": "nmoles/min/mg protein"}, {"measurement": "specific activities", "setting": "[10]; [11]", "result": "85 nmoles NAD^+ reduced per min. per mg. protein"}, {"measurement": "Conversion Rate", "setting": "[10]; [12]", "result": 5.2, "unit": "μmoles/hr/mg Protein"}]}]}
